Experimental data: ChEMBL document CHEMBL1201862, “PubChem BioAssay data set” (2004)
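Test compounds were applied to cells in 96-well plates for 48 hours at 5 doses. Here, GI50 denotes the concentration required for 50% inhibition of growth.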 Activity calls are given as the source filed them. Rule as the data show it: active = GI50 up to about 1.1 µM and inactive = higher.

Tests used:
Experiment in all cases: inhibition of tumour cell growth, NCI panel, 48 h
[1] = tested on: 786-0
[2] = tested on: ACHN
[3] = tested on: CAKI-1
[4] = tested on: CCRF-CEM
[5] = tested on: DU-145
[6] = tested on: EKVX
[7] = tested on: HCT-116
[8] = tested on: HL-60
[9] = tested on: HOP-62
[10] = tested on: Hs-578T
[11] = tested on: LOX IMVI
[12] = tested on: Malme-3M
[13] = tested on: OVCAR-5
[14] = tested on: PC-3
[15] = tested on: SF-539
[16] = tested on: SN12C
[17] = tested on: UACC-257
[18] = tested on: UACC-62
[19] = tested on: MDA-MB-435

Measured: GI50

CCC/C(Cl)=N\OC(=O)Nc1cccc(C(F)(F)F)c1
inactive: [1] 16 µM | [2] 16.3 µM | [3] 18.1 µM | [4] 2.43 µM | [5] 13.2 µM | [6] 16.6 µM | [7] 18.2 µM | [8] 1.88 µM | [9] > 100 µM | [10] 29.7 µM | [11] 6.84 µM | [12] 13.2 µM | [13] 20.3 µM | [14] 17.6 µM | [15] 18.7 µM | [16] 15.1 µM | [17] 17.5 µM | [18] 18.9 µM

Cn1c(=O)cc(NCc2ccc(Cl)cc2)[nH]c1=O
inactive: [1] 54 µM | [2] 49.7 µM | [3] > 100 µM | [6] > 100 µM | [7] 52.6 µM | [9] 22.4 µM | [10] 18.8 µM | [11] > 100 µM | [19] > 100 µM | [12] 73.3 µM | [13] > 100 µM | [14] > 100 µM | [15] 32.4 µM | [16] > 100 µM | [17] > 100 µM | [18] 30.8 µM

CC(C)(C)/C(O)=C\c1nc2ccc(C(F)(F)F)cc2[nH]c1=O
inactive: [1] > 100 µM | [2] > 100 µM | [3] > 100 µM | [4] > 100 µM | [5] > 100 µM | [6] > 100 µM | [7] > 100 µM | [9] > 100 µM | [10] > 100 µM | [11] > 100 µM | [19] > 100 µM | [12] > 100 µM | [13] > 100 µM | [14] > 100 µM | [16] > 100 µM | [17] > 100 µM | [18] > 100 µM

CCOC(=O)[C@@]12C3C=CC(CC3)[C@]1(C(=O)c1ccccc1)C(=O)C(=O)N2c1ccccc1 (stereo not given in full)
inactive: [1] > 100 µM | [2] > 100 µM | [3] > 100 µM | [5] > 100 µM | [7] > 100 µM | [9] > 100 µM | [19] > 100 µM | [12] > 100 µM | [13] > 100 µM | [14] > 100 µM | [15] > 100 µM | [16] > 100 µM | [18] 97.3 µM

CCCc1c(OC)c(=O)c2c(O)cc(OC)c3c4c(OC)cc(O)c5c(=O)c(OC)c(CCC)c(c1c23)c54
inactive: [1] 2.84 µM | [2] 4.51 µM | [3] 4.17 µM | [4] 1.26 µM | [5] 3.76 µM | [6] 2.58 µM | [7] 2.63 µM | [9] 6.47 µM | [11] 1.63 µM | [19] 1.85 µM | [12] 2.43 µM | [13] 10.4 µM | [14] 2.44 µM | [15] 1.49 µM | [16] 3.15 µM | [17] 13.4 µM | [18] 10.3 µM

OC[C@H]1NC[C@@H](O)[C@@H](O)[C@H]1O
inactive: [3] > 100 µM | [4] > 100 µM | [5] > 10 µM | [7] > 100 µM | [9] > 100 µM | [10] > 100 µM | [11] > 100 µM | [19] > 100 µM | [12] > 100 µM | [13] > 100 µM | [14] > 100 µM | [16] > 100 µM | [17] > 100 µM | [18] > 100 µM
